Measurements reported in US20230330254A1 (Regeneron Pharmaceuticals, Inc., priority 2022, published 2023).
Like-named read-outs stand apart in the source and are kept apart here. Where a SMILES comes first, the peptide text is derived from it. [ ]: non-standard residue; d: D form. The star is where a group is joined. Bip(2'-Et,4'-O(CH2)4N3) = CCc1cc(OCCCCN=[N+]=[N-])ccc1-c1ccc(C[C@H](N)C(=O)O)cc1; Bip(2'-Et,4'-O(CH2)4NH2) = CCc1cc(OCCCCN)ccc1-c1ccc(C[C@H](N)C(=O)O)cc1; Malonyl(2,2-Me2,histaminyl) = CC(C)(C(=O)NCCc1cnc[nH]1)C(=O)*; Nva(5-(3,5-Me2Ph)) = Cc1cc(C)cc(CCC[C@H](N)C(=O)O)c1; Ala(1H-tetrazol-5-yl) = N[C@@H](Cc1nnn[nH]1)C(=O)O; αMePhe(2-F) = C[C@](N)(Cc1ccccc1F)C(=O)O; Aib = CC(C)(N)C(=O)O; NHPh = c1ccc(N*)cc1

Key:
[1] = Plasma stability of payloads (t½)
[2] = Plasma stability of payloads and linker-payloads, human plasma; format: in vitro ADME; conditions: plasma, 2 μM, 37° C.; for half-life at 2 µM: read-out: Human plasma stability assay T½ (converted)
Experimental: The plasma stability of payloads and linker payloads of the disclosure were measured. For the assay, pooled frozen plasma (human, mouse or monkey) was thawed in cold water or a 37° C. water bath prior to experiment. Plasma was centrifuged at 4000 rpm for 5 min if any clots were observed, they were subsequently removed. If required, the pH was adjusted to 7.4±0.1. For the preparation of compounds and positive controls, a 1 mM intermediate solution was prepared by diluting 10 μL of their stock solution with 90 μL DMSO; a 1 mM intermediate solution of the positive control (Propantheline) was prepared by diluting 10 μL of its stock solution with 90 μL ultrapure water. […] 98 μL of plasma was spiked with 2 μL of dosing solution (100 μM) to achieve the final concentration of 2 μM in duplicate. Samples were then incubated at 37° C. in a water bath. […] At each time point, 400 μL of stop solution (200 ng/mL tolbutamide plus 200 ng/mL labetalol in 50% ACN/MeOH) was added to precipitate protein and mixed thoroughly. Sample plates were then centrifuged at 4,000 rpm for 10 min. An aliquot of supernatant (50 μL) was transferred from each well and mixed with 100 μL ultrapure water. The samples were then shaken at 800 rpm for approximately 10 min before submitting for LC-MS/MS analysis.

[3] = molecular target: T1, human GLP1R (Homo sapiens, UniProt P43220); experiment: Human GLP1R cAMP accumulation assay; format: cell-based; set-up: HEK293 cells over-expressing full length human GLP-1R were utilized; expressed in transfected cells; host or cells: HEK293 (HEK293/hGLP1R); conditions: HEK293/hGLP1R cells; Table 4; read-out: cAMP EC50
How it was run: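 cAMP accumulation measured after 30 min at 23° C, with 500 μM IBMX in HEPES-buffered HBSS plus 0.1% BSA, in HEK293 cells expressing full-length hGLP-1R. Levels read by D2-cAMP/antibody immunoassay via standard curve, scaled between low and high controls. EC50 fitted four-parameter over a 10-point curve.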

[4] = system: HEK293/CRE-Luc cells; experiment: Luciferase reporter assay, HEK293/CRE-Luc cells without GLP1R (Example 17); format: cell-based, human; conditions: HEK293/CRE-Luc cells without hGLP1R, payloads and linker-payloads; for EC50: read-out: EC50
How it was run: (§1)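 HEK293 cells carrying a CRE-driven firefly luciferase reporter were exposed to 3-fold serial dilutions of payloads or linker-payloads (12 points, 0.2% DMSO final) for 4–6 h, then luminescence was read. EC50 came from a four-parameter logistic fit; S/N is top RLU over untreated wells, and relative potency and S/N are referenced to M2361.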

[5] = molecular target: T1, human GLP1R; experiment: Luciferase reporter assay, HEK293/CRE-Luc/hGLP1R (Example 17); format: cell-based; set-up: engineered to express full-length human GLP1R, cynomolgus GLP1R; expressed in transfected cells; host or cells: HEK293/CRE-Luc; conditions: HEK293/CRE-Luc/hGLP1R; for S/N: highest RLU / RLU of untreated wells; for EC50: payloads and linker-payloads, experiments A-E, M2361 repeated in each, read-out: EC50; for Relative Potency (% M2361 EC50) / Relative Signal:Noise (% M2361): relative to M2361 of the same experiment
How it was run: as §1

[6] = system: HEK293/CRE-Luc cells; experiment: Luciferase reporter assay, HEK293/CRE-Luc cells without hGLP1R (Example 11); format: cell-based, human; conditions: Table 11; Experiment A; no hGLP1R expression
Excerpt: (§2) To test the activity of GLP1R agonist payloads, GLP1R agonist linker-payloads (LPs), and anti-GLP1R antibody tethered drug conjugates (ATDCs) of the disclosure, a cell-based cAMP responsive luciferase reporter assay was developed. To generate the assay cell line, the firefly luciferase gene was placed under the control of a cAMP response element (CRE) located upstream of a minimal promoter and transfected into HEK293 cells and referred to herein as HEK293/CRE-Luc cells.
(§3) Three-fold serial dilutions of free payloads or LPs were prepared in 100% DMSO, transferred to fresh assay media, and added to the cells at a final constant DMSO concentration of 0.2%. The last well in the plate served as a blank control containing only the assay media and 0.2% DMSO (untreated well) and was plotted as a continuation of the 3-fold serial dilution. Four to six hours later, luciferase activity was determined after the addition of One-Glo™ reagent (Promega, Cat #E6130) to each well. Relative light units (RLUs) were measured on an Envision luminometer (PerkinElmer) and EC50 values were determined using a four-parameter logistic equation over a 12-point dose response curve (GraphPad Prism). The signal to noise (S/N) was determined by taking the ratio of the highest RLU on the dose response curve to the RLU in the untreated wells.

[7] = molecular target: T1, human GLP1R; experiment: Luciferase reporter assay, HEK293/CRE-Luc/hGLP1R cells (Example 11); format: cell-based; set-up: engineered to express full-length human GLP1R, cynomolgus GLP1R; expressed in transfected cells; host or cells: HEK293/CRE-Luc; conditions: Table 11; Experiment A
Excerpt: as §2, §3
GLP1R agonist linker payloads were conjugated to anti-hGLP1R antibodies via N-terminal heavy or light chain Q tags. Several resulting anti-GLP1R antibody tethered drug conjugates (ATDCs) were tested for activity in the HEK293/CRE-Luc/hGLP1R reporter assay as described above for the free GLP1R payload and linker-payload agonists.

[8] = pH 7.4, tested time A (1 day per footnote)
[9] = pH 7.4, tested time B (2 hrs per footnote)

T1 sequence (P43220 24-463): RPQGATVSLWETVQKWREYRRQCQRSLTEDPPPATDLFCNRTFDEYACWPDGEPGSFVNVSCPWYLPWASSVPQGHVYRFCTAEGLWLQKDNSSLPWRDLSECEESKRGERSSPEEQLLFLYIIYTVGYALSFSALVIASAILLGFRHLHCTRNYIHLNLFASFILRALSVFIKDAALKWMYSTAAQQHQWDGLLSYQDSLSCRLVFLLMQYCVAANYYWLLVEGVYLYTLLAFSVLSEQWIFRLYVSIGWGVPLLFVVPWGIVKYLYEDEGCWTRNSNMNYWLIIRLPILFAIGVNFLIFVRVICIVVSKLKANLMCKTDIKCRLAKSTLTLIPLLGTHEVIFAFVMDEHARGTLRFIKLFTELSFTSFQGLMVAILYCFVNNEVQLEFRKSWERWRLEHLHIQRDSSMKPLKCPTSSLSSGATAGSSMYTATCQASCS

| Compound | EC50 [3] [pM] | S/N [4] | EC50 [4] [pM] | S/N [5] | EC50 [5] [pM] | Relative Potency (% M2361 EC50) [5] [%] | Relative Signal:Noise (% M2361) [5] [%] | half-life at 2 µM [2, 9] [h] | also measured |
| --- | --- | --- | --- | --- | --- | --- | --- | --- | --- |
| CCc1cc(OCCCCN)ccc1-c1ccc(C[C@H](NC(=O)[C@H](CC(=O)O)NC(=O)[C@H](CO)NC(=O)[C@@H](NC(=O)[C@](C)(Cc2ccccc2F)NC(=O)[C@@H](NC(=O)CNC(=O)[C@H](Cc2nn[nH]n2)NC(=O)C(C)(C)NC(=O)[C@@H](N)Cc2ccc(O)cc2)[C@@H](C)O)[C@@H](C)O)C(=O)N[C@@H](CCCc2cc(C)cc(C)c2)C(N)=O)cc1 [P19] (H-Y[Aib][Ala(1H-tetrazol-5-yl)]GT[αMePhe(2-F)]TSD[Bip(2'-Et,4'-O(CH2)4NH2)][Nva(5-(3,5-Me2Ph))]-NH2) | 156 | 1.0 | > 200000 | 78.5 | 53.5 | 9.9 | 119.4 |  | Plasma stability t½ [1]: >57.8 h; half-life at 2 µM [2, 8]: > 57.8 h |
| CCc1cc(OCCCCN)ccc1-c1ccc(C[C@H](NC(=O)[C@H](CC(=O)O)NC(=O)[C@H](CO)NC(=O)[C@@H](NC(=O)[C@](C)(Cc2ccccc2F)NC(=O)[C@@H](NC(=O)CNC(=O)[C@H](Cc2nn[nH]n2)NC(=O)C(C)(C)C(=O)NCCc2cnc[nH]2)[C@@H](C)O)[C@@H](C)O)C(=O)N[C@@H](CCCc2cc(C)cc(C)c2)C(=O)Nc2ccccc2)cc1 [P23] ({Malonyl(2,2-Me2,histaminyl)}-[Ala(1H-tetrazol-5-yl)]GT[αMePhe(2-F)]TSD[Bip(2'-Et,4'-O(CH2)4NH2)][Nva(5-(3,5-Me2Ph))]-NHPh) | 198 | 1.6 | > 200000 | 57.1 | 5.15 | 103.0 | 86.9 | 10.7 | EC50 [6]: > 200000 pM; HEK293/CRE-LUC S/N [6]: 1.6; EC50 [7]: 5.15 pM; HEK293/CRE-LUC/hGLP1R Relative Potency (% P8 EC50) [7]: 103.0%; HEK293/CRE-LUC/hGLP1R S/N [7]: 57.1 |
| CCc1cc(OCCCCN)ccc1-c1ccc(C[C@H](NC(=O)[C@H](CC(=O)O)NC(=O)[C@H](CO)NC(=O)[C@@H](NC(=O)[C@](C)(Cc2ccccc2F)NC(=O)[C@@H](NC(=O)CNC(=O)[C@@H](N)Cc2nn[nH]n2)[C@@H](C)O)[C@@H](C)O)C(=O)N[C@@H](CCCc2cc(C)cc(C)c2)C(N)=O)cc1 [P2] |  |  |  | 306.2 | 19000 | 0.1 | 93.4 | 10.7 | Plasma stability t½ [1]: 10.7 h |
| CCc1cc(OCCCCn2cc(COCCOCCOCCOCCOCCOCCOCCOCCNC(=O)CCC(=O)N3Cc4ccccc4-c4nn[nH]c4-c4ccccc43)nn2)ccc1-c1ccc(C[C@H](NC(=O)[C@H](CC(=O)O)NC(=O)[C@H](CO)NC(=O)[C@@H](NC(=O)C(C)(Cc2ccccc2F)NC(=O)[C@@H](NC(=O)CNC(=O)[C@H](Cc2nn[nH]n2)NC(=O)C(C)(C)C(=O)NCCc2cnc[nH]2)[C@@H](C)O)[C@@H](C)O)C(=O)N[C@@H](CCCc2cc(C)cc(C)c2)C(N)=O)cc1 (stereo partly drawn) [LP28, triazole-DIBAC-suc-PEG8-triazole-P8] |  |  |  |  |  |  |  |  | half-life at 2 µM ([2]; pH 7.4, tested time C (3 days)): > 173 h |
| CCc1cc(OCCCCN=[N+]=[N-])ccc1-c1ccc(C[C@H](NC(=O)[C@H](CC(=O)O)NC(=O)[C@H](CO)NC(=O)[C@@H](NC(=O)[C@](C)(Cc2ccccc2F)NC(=O)[C@@H](NC(=O)CNC(=O)[C@H](Cc2nn[nH]n2)NC(=O)C(C)(C)C(=O)NCCc2cnc[nH]2)[C@@H](C)O)[C@@H](C)O)C(=O)N[C@@H](CCCc2cc(C)cc(C)c2)C(=O)O)cc1 [P41] ({Malonyl(2,2-Me2,histaminyl)}-[Ala(1H-tetrazol-5-yl)]GT[αMePhe(2-F)]TSD[Bip(2'-Et,4'-O(CH2)4N3)][Nva(5-(3,5-Me2Ph))]-OH) |  |  |  |  |  |  |  |  | half-life at 2 µM [2, 8]: > 57.8 h |
| CCc1cc(OCCCCN)ccc1-c1ccc(C[C@H](NC(=O)[C@H](CC(=O)O)NC(=O)[C@H](CO)NC(=O)[C@@H](NC(=O)[C@](C)(Cc2ccccc2F)NC(=O)[C@@H](NC(=O)CNC(=O)[C@H](Cc2nn[nH]n2)NC(=O)[C@H](C)NC(=O)[C@@H](N)Cc2cnc[nH]2)[C@@H](C)O)[C@@H](C)O)C(=O)N[C@@H](CCCc2cc(C)cc(C)c2)C(N)=O)cc1 [P10] (H-HA[Ala(1H-tetrazol-5-yl)]GT[αMePhe(2-F)]TSD[Bip(2'-Et,4'-O(CH2)4NH2)][Nva(5-(3,5-Me2Ph))]-NH2) | 47 | 1.2 | > 200000 | 45.1 | 14 | 38.0 | 68.6 | 1.83 | EC50 [6]: > 200000 pM; HEK293/CRE-LUC S/N [6]: 1.2; EC50 [7]: 14 pM; HEK293/CRE-LUC/hGLP1R Relative Potency (% P8 EC50) [7]: 38.0%; HEK293/CRE-LUC/hGLP1R S/N [7]: 45.1 |
| CCc1cc(OCCCCNC(=O)[C@H](CO)NC(=O)CNC(=O)CNC(=O)CNC(=O)CNC(=O)CCC(=O)N2Cc3ccccc3-c3nn[nH]c3-c3ccccc32)ccc1-c1ccc(C[C@H](NC(=O)[C@H](CC(=O)O)NC(=O)[C@H](CO)NC(=O)[C@@H](NC(=O)[C@](C)(Cc2ccccc2F)NC(=O)[C@@H](NC(=O)CNC(=O)[C@H](Cc2nn[nH]n2)NC(=O)C(C)(C)C(=O)NCCc2cnc[nH]2)[C@@H](C)O)[C@@H](C)O)C(=O)N[C@@H](CCCc2cc(C)cc(C)c2)C(N)=O)cc1 [LP26, triazole- DIBAC- G4S-P9] |  |  |  |  |  |  |  |  | half-life at 2 µM ([2]; pH 7.4, tested time D (7 days)): > 405 h |
| CCc1cc(OCCCCn2cc(COCCOCCOCCOCCOCCOCCOCCOCCC(=O)N[C@@H](CC(C)C)C(=O)N3CCC[C@@H]3C(=O)N[C@@H](CCC(=O)O)C(=O)N[C@H](C(=O)NCC(=O)NCC(=O)O)[C@@H](C)O)nn2)ccc1-c1ccc(C[C@H](NC(=O)[C@H](CC(=O)O)NC(=O)[C@H](CO)NC(=O)[C@@H](NC(=O)[C@](C)(Cc2ccccc2F)NC(=O)[C@@H](NC(=O)CNC(=O)[C@H](Cc2nn[nH]n2)NC(=O)C(C)(C)C(=O)NCCc2cnc[nH]2)[C@@H](C)O)[C@@H](C)O)C(=O)N[C@@H](CCCc2cc(C)cc(C)c2)C(N)=O)cc1 [LP34, GGT EPL-PEG8-triazole-P8] |  |  |  |  |  |  |  |  | half-life ([2]; tested time C (3 days), read-out: Human plasma stability assay T½): > 173 h |
